This is an account of results in ChEMBL document CHEMBL1154316, “Structure-activity relationship study of EphB3 receptor tyrosine kinase inhibitors” (Bioorg Med Chem Lett, 2009).

Data set [1] in a line: Half life in mouse liver microsomes at 3 uM measured up to 60 mins. Format: ADME, Microsome. The following applies: for half-life at 3 µM: liver microsomes. In general terms: Microsomes from liver hold many membrane-bound enzymes, among them those of drug oxidation.
Data set [2] is described as follows: Intrinsic clearance in mouse liver microsomes assessed as per mg of protein at 3 uM measured up to 60 mins. Format: ADME, Microsome. The following applies: for microsomal CLint at 3 µM: liver microsomes.

One may read the half-life as the time needed for the level to fall by half in the phase considered. A higher half-life goes with slow loss. As a reminder, the microsomal CLint is the rate of metabolic loss divided by the concentration.

SMILES strings stand for the structures.

For `O=C(Nc1ccccc1Cl)c1cnn2ccccc12`, the t1/2 in data set [1] (microsomes, 1 h, 3 µM) amounted to 5.3 min. In addition, the CL in data set [2] (microsomes, 1 h, 3 µM) was determined as 261 µL/min/mg.

In data set [1], `O=C(Nc1ccccc1Cl)c1cnn2ccc(-c3ccccc3)cc12` yielded a half-life at 3 µM of 27 min. Further, the microsomal CLint at 3 µM in data set [2] came out at 51 µL/min/mg.

The compound `O=C(Nc1ccccc1Cl)c1cnc2ccc(C3CCNCC3)cn12.O=C(O)C(=O)O` came in with a half-life at 3 µM in data set [1] of 348 min.

Turning to `O=C(Nc1ccccc1Cl)c1cnc2ccccn12`, in data set [1], the half-life at 3 µM stood at 3.8 min. Moreover, the microsomal CLint at 3 µM in data set [2] worked out at 361 µL/min/mg.

The compound `O=C(Nc1ccccc1Cl)c1cnc2ccc(N3CCCCC3)cn12` gave a half-life at 3 µM in data set [1] of 20 min. The microsomal CLint at 3 µM in data set [2] was determined as 71 µL/min/mg.

Turning to `O=C(Nc1ccccc1Cl)c1cnc2ccc(-c3ccccc3)cn12`, the half-life at 3 µM in data set [1] is 53 min. In addition, the microsomal CLint at 3 µM in data set [2] worked out at 26 µL/min/mg.

In data set [1], `O=C(Nc1ccccc1Cl)c1cnn2ccc(N3CCCCC3)cc12` showed a half-life at 3 µM of 8.3 min. In addition, the microsomal CLint at 3 µM in data set [2] turned out to be 167 µL/min/mg.
